From ChEMBL document CHEMBL3885861, “Open TG-GATES”

Organism: Rattus norvegicus
Assay: Open TG-GATES - Regimen: Daily Repeat
Assay type: toxicity, organism-based, Sprague-Dawley
Design: regimen Daily Repeat, gender Male, age 6 weeks
Details: in vivo, po, route gavage; for APTT / Bas / Eos / Fbg / Hb / Ht / Lym / MCH / MCHC / MCV / Mono / Neu / PT / Plat / RBC / Ret / WBC: tissue Blood; for KIDNEY_L / KIDNEY_R / KIDNEY_TOTAL: tissue Kidney; for LIVER: tissue Liver; for A/G / ALP / ALT / AST / BUN / CRE / Ca / Cl / DBIL / GLC / IP / K / LDH / Na / PL / RALB / TBIL / TC / TG / TP / gamma-GTP: tissue Plasma
[1] = 0 mg/kg, 72 h, dose level Control, time 3 day
[2] = 0 mg/kg, […], dose level Control, time 7 day
[3] = 0 mg/kg, […], dose level Control, time 14 day
[4] = 0 mg/kg, […], dose level Control, time 28 day
[5] = 30 mg/kg, 72 h, dose level Low, time 3 day
[6] = 30 mg/kg, […], dose level Low, time 7 day
[7] = 30 mg/kg, […], dose level Low, time 14 day
[8] = 30 mg/kg, […], dose level Low, time 28 day

Brc1ccccc1 [BROMOBENZENE]
TERMINAL_BW [1]: 210.3 g
APTT [1]: 15.5 s
Bas [1]: 0%
Eos [1]: 1%
Fbg [1]: 264.4 mg/dL
Hb [1]: 13.1 g/dL
Ht [1]: 38.3%
Lym [1]: 79.8%
MCH [1]: 21.4 pg
MCHC [1]: 34.3%
MCV [1]: 62.4 fL
Mono [1]: 3.2%
Neu [1]: 15.6%
PT [1]: 12 s
Plat [1]: 116.4 x10_4/uL
RBC [1]: 613.6 x10_4/ul
Ret [1]: 7.8%
WBC [1]: 89.2 x10_2/uL
KIDNEY_L [1]: 0.9 g
KIDNEY_R [1]: 0.8 g
KIDNEY_TOTAL [1]: 1.7 g
LIVER [1]: 10 g
A/G [1]: 0.9
ALP [1]: 1625.4 IU/L
ALT [1]: 52.2 IU/L
AST [1]: 77.8 IU/L
BUN [1]: 14.8 mg/dL
CRE [1]: 0.2 mg/dL
Ca [1]: 10.2 mg/dL
Cl [1]: 104.8 meq/L
DBIL [1]: 0.012 mg/dL
GLC [1]: 187 mg/dL
IP [1]: 7.6 mg/dL
K [1]: 4 meq/L
LDH [1]: 63.6 IU/L
Na [1]: 141.8 meq/L
PL [1]: 142.6 mg/dL
RALB [1]: 2.6 g/dL
TBIL [1]: 0.04 mg/dL
TC [1]: 79 mg/dL
TG [1]: 101 mg/dL
TP [1]: 5.7 g/dL
gamma-GTP [1]: 1.2 IU/L
TERMINAL_BW [2]: 242.1 g
TERMINAL_BW [3]: 295 g
TERMINAL_BW [4]: 384.4 g
APTT [2]: 15.7 s
Bas [2]: 0.2%
Eos [2]: 1%
Fbg [2]: 283.4 mg/dL
Hb [2]: 13.4 g/dL
Ht [2]: 39%
Lym [2]: 78.4%
MCH [2]: 21.4 pg
MCHC [2]: 34.5%
MCV [2]: 61.9 fL
Mono [2]: 2.8%
Neu [2]: 18%
PT [2]: 12.3 s
Plat [2]: 115.5 x10_4/uL
RBC [2]: 630.4 x10_4/ul
Ret [2]: 5.8%
WBC [2]: 112.8 x10_2/uL
APTT [3]: 15.8 s
Bas [3]: 0%
Eos [3]: 0.8%
Fbg [3]: 320.2 mg/dL
Hb [3]: 13.8 g/dL
Ht [3]: 39.9%
Lym [3]: 77%
MCH [3]: 20.8 pg
MCHC [3]: 34.7%
MCV [3]: 60 fL
Mono [3]: 2.4%
Neu [3]: 19%
PT [3]: 12 s
Plat [3]: 113.5 x10_4/uL
RBC [3]: 665.6 x10_4/ul
Ret [3]: 4.4%
WBC [3]: 89.1 x10_2/uL
APTT [4]: 17.6 s
Bas [4]: 0%
Eos [4]: 1.6%
Fbg [4]: 301 mg/dL
Hb [4]: 14.9 g/dL
Ht [4]: 42.4%
Lym [4]: 79.4%
MCH [4]: 19.4 pg
MCHC [4]: 35.1%
MCV [4]: 55.4 fL
Mono [4]: 2.6%
Neu [4]: 15.4%
PT [4]: 12.5 s
Plat [4]: 103.9 x10_4/uL
RBC [4]: 765 x10_4/ul
Ret [4]: 2.4%
WBC [4]: 110.4 x10_2/uL
KIDNEY_L [2]: 1 g
KIDNEY_R [2]: 1 g
KIDNEY_TOTAL [2]: 2 g
KIDNEY_L [3]: 1.2 g
KIDNEY_R [3]: 1.1 g
KIDNEY_TOTAL [3]: 2.3 g
KIDNEY_L [4]: 1.3 g
KIDNEY_R [4]: 1.3 g
KIDNEY_TOTAL [4]: 2.6 g
LIVER [2]: 11 g
LIVER [3]: 12.9 g
LIVER [4]: 16.6 g
A/G [2]: 0.8
ALP [2]: 1737.2 IU/L
ALT [2]: 51 IU/L
AST [2]: 72.6 IU/L
BUN [2]: 14.8 mg/dL
CRE [2]: 0.2 mg/dL
Ca [2]: 11 mg/dL
Cl [2]: 107 meq/L
DBIL [2]: 0.012 mg/dL
GLC [2]: 191.2 mg/dL
IP [2]: 7 mg/dL
K [2]: 3.9 meq/L
LDH [2]: 97 IU/L
Na [2]: 143.8 meq/L
PL [2]: 145.8 mg/dL
RALB [2]: 2.7 g/dL
TBIL [2]: 0.044 mg/dL
TC [2]: 75.4 mg/dL
TG [2]: 90.2 mg/dL
TP [2]: 5.9 g/dL
gamma-GTP [2]: 1 IU/L
A/G [3]: 0.8
ALP [3]: 1619.6 IU/L
ALT [3]: 39.2 IU/L
AST [3]: 67.8 IU/L
BUN [3]: 15.8 mg/dL
CRE [3]: 0.2 mg/dL
Ca [3]: 10.8 mg/dL
Cl [3]: 106.6 meq/L
DBIL [3]: 0 mg/dL
GLC [3]: 191.6 mg/dL
IP [3]: 6.8 mg/dL
K [3]: 3.9 meq/L
LDH [3]: 64.2 IU/L
Na [3]: 143.2 meq/L
PL [3]: 153 mg/dL
RALB [3]: 2.7 g/dL
TBIL [3]: 0.032 mg/dL
TC [3]: 75.6 mg/dL
TG [3]: 95 mg/dL
TP [3]: 5.9 g/dL
gamma-GTP [3]: 1 IU/L
A/G [4]: 0.8
ALP [4]: 1341.6 IU/L
ALT [4]: 45.8 IU/L
AST [4]: 64 IU/L
BUN [4]: 16 mg/dL
CRE [4]: 0.2 mg/dL
Ca [4]: 10.7 mg/dL
Cl [4]: 104 meq/L
DBIL [4]: 0.018 mg/dL
GLC [4]: 186.6 mg/dL
IP [4]: 6 mg/dL
K [4]: 3.8 meq/L
LDH [4]: 71.4 IU/L
Na [4]: 142.2 meq/L
PL [4]: 157.8 mg/dL
RALB [4]: 2.9 g/dL
TBIL [4]: 0.036 mg/dL
TC [4]: 80.2 mg/dL
TG [4]: 158.4 mg/dL
TP [4]: 6.5 g/dL
gamma-GTP [4]: 1 IU/L
TERMINAL_BW [5]: 211.4 g
APTT [5]: 16.2 s
Bas [5]: 0%
Eos [5]: 1%
Fbg [5]: 274.2 mg/dL
Hb [5]: 13.2 g/dL
Ht [5]: 38.9%
Lym [5]: 76.6%
MCH [5]: 21.2 pg
MCHC [5]: 34%
MCV [5]: 62.4 fL
Mono [5]: 4.2%
Neu [5]: 17.8%
PT [5]: 12 s
Plat [5]: 113.4 x10_4/uL
RBC [5]: 624.8 x10_4/ul
Ret [5]: 7.4%
WBC [5]: 117.5 x10_2/uL
KIDNEY_L [5]: 0.9 g
KIDNEY_R [5]: 0.9 g
KIDNEY_TOTAL [5]: 1.8 g
LIVER [5]: 10.6 g
A/G [5]: 0.9
ALP [5]: 1588.2 IU/L
ALT [5]: 54.2 IU/L
AST [5]: 70.2 IU/L
BUN [5]: 13.8 mg/dL
CRE [5]: 0.2 mg/dL
Ca [5]: 10.4 mg/dL
Cl [5]: 105.2 meq/L
DBIL [5]: 0.012 mg/dL
GLC [5]: 182 mg/dL
IP [5]: 7.3 mg/dL
K [5]: 4.1 meq/L
LDH [5]: 77 IU/L
Na [5]: 142 meq/L
PL [5]: 154 mg/dL
RALB [5]: 2.6 g/dL
TBIL [5]: 0.05 mg/dL
TC [5]: 84.6 mg/dL
TG [5]: 76 mg/dL
TP [5]: 5.6 g/dL
gamma-GTP [5]: 1.2 IU/L
TERMINAL_BW [6]: 250.4 g
TERMINAL_BW [7]: 301.3 g
TERMINAL_BW [8]: 378.5 g
APTT [6]: 16.1 s
Bas [6]: 0%
Eos [6]: 1%
Fbg [6]: 272.4 mg/dL
Hb [6]: 12.9 g/dL
Ht [6]: 37.6%
Lym [6]: 78%
MCH [6]: 21.3 pg
MCHC [6]: 34.4%
MCV [6]: 62 fL
Mono [6]: 2.6%
Neu [6]: 18%
PT [6]: 12.7 s
Plat [6]: 117.9 x10_4/uL
RBC [6]: 606.8 x10_4/ul
Ret [6]: 6.2%
WBC [6]: 100.6 x10_2/uL
APTT [7]: 16 s
Bas [7]: 0%
Eos [7]: 0.8%
Fbg [7]: 316.2 mg/dL
Hb [7]: 14.2 g/dL
Ht [7]: 41.2%
Lym [7]: 81.6%
MCH [7]: 20.5 pg
MCHC [7]: 34.5%
MCV [7]: 59.2 fL
Mono [7]: 2.6%
Neu [7]: 14.4%
PT [7]: 11.7 s
Plat [7]: 116 x10_4/uL
RBC [7]: 696.6 x10_4/ul
Ret [7]: 4.2%
WBC [7]: 87.7 x10_2/uL
APTT [8]: 16.4 s
Bas [8]: 0.2%
Eos [8]: 1.2%
Fbg [8]: 305.8 mg/dL
Hb [8]: 15 g/dL
Ht [8]: 42.8%
Lym [8]: 75.6%
MCH [8]: 19.7 pg
MCHC [8]: 35%
MCV [8]: 56.2 fL
Mono [8]: 3%
Neu [8]: 19%
PT [8]: 12.6 s
Plat [8]: 103.7 x10_4/uL
RBC [8]: 762.2 x10_4/ul
Ret [8]: 2.7%
WBC [8]: 101.5 x10_2/uL
KIDNEY_L [6]: 1 g
KIDNEY_R [6]: 1 g
KIDNEY_TOTAL [6]: 2 g
KIDNEY_L [7]: 1.2 g
KIDNEY_R [7]: 1.2 g
KIDNEY_TOTAL [7]: 2.4 g
KIDNEY_L [8]: 1.3 g
KIDNEY_R [8]: 1.3 g
KIDNEY_TOTAL [8]: 2.7 g
LIVER [6]: 12.3 g
LIVER [7]: 14.5 g
LIVER [8]: 16.3 g
A/G [6]: 0.9
ALP [6]: 1766.2 IU/L
ALT [6]: 40.6 IU/L
AST [6]: 71 IU/L
BUN [6]: 14.4 mg/dL
CRE [6]: 0.2 mg/dL
Ca [6]: 11.1 mg/dL
Cl [6]: 105.2 meq/L
DBIL [6]: 0.01 mg/dL
GLC [6]: 195 mg/dL
IP [6]: 7 mg/dL
K [6]: 3.9 meq/L
LDH [6]: 109 IU/L
Na [6]: 143.4 meq/L
PL [6]: 143 mg/dL
RALB [6]: 2.7 g/dL
TBIL [6]: 0.042 mg/dL
TC [6]: 74.6 mg/dL
TG [6]: 84.4 mg/dL
TP [6]: 5.8 g/dL
gamma-GTP [6]: 1.4 IU/L
A/G [7]: 0.8
ALP [7]: 1573.2 IU/L
ALT [7]: 40 IU/L
AST [7]: 65 IU/L
BUN [7]: 15.2 mg/dL
CRE [7]: 0.2 mg/dL
Ca [7]: 11 mg/dL
Cl [7]: 105.6 meq/L
DBIL [7]: 0.01 mg/dL
GLC [7]: 191.6 mg/dL
IP [7]: 6.8 mg/dL
K [7]: 4.1 meq/L
LDH [7]: 84.8 IU/L
Na [7]: 143 meq/L
PL [7]: 158.2 mg/dL
RALB [7]: 2.8 g/dL
TBIL [7]: 0.038 mg/dL
TC [7]: 74.2 mg/dL
TG [7]: 159.4 mg/dL
TP [7]: 6.2 g/dL
gamma-GTP [7]: 0.8 IU/L
A/G [8]: 0.8
ALP [8]: 1032.4 IU/L
ALT [8]: 36 IU/L
AST [8]: 59.8 IU/L
BUN [8]: 15.8 mg/dL
CRE [8]: 0.2 mg/dL
Ca [8]: 10.7 mg/dL
Cl [8]: 105.8 meq/L
DBIL [8]: 0.016 mg/dL
GLC [8]: 190.2 mg/dL
IP [8]: 6 mg/dL
K [8]: 3.8 meq/L
LDH [8]: 58.6 IU/L
Na [8]: 142.8 meq/L
PL [8]: 152.2 mg/dL
RALB [8]: 2.9 g/dL
TBIL [8]: 0.034 mg/dL
TC [8]: 80.6 mg/dL
TG [8]: 141.4 mg/dL
TP [8]: 6.5 g/dL
gamma-GTP [8]: 1 IU/L
